pKi: −log10 of the molar value.
What was measured:
[1] = biological target: Kappa-type opioid receptor (Cavia porcellus, UniProt P41144); test: Displacement of [3H]U69593 from kappa opioid receptor in guinea pig cerebellum; format: tissue-based
Mu-type opioid receptor = Mu-type opioid receptor (Cavia porcellus, UniProt P97266); test: Displacement of [3H]DAMGO from mu opioid receptor in guinea pig forebrain
[2] = Displacement of [3H]NTI from delta opioid receptor in guinea pig forebrain; design: species or system Cavia porcellus
[3] = biological target: Opioid receptor (mu and kappa) (Cavia porcellus) (UniProt P41144+P97266); test: Ratio of Ki for guinea pig mu opioid receptor to Ki for guinea pig kappa opioid receptor
Opioid receptor (mu and kappa) (Cavia porcellus), sequence (P41144 whole entry, looked up): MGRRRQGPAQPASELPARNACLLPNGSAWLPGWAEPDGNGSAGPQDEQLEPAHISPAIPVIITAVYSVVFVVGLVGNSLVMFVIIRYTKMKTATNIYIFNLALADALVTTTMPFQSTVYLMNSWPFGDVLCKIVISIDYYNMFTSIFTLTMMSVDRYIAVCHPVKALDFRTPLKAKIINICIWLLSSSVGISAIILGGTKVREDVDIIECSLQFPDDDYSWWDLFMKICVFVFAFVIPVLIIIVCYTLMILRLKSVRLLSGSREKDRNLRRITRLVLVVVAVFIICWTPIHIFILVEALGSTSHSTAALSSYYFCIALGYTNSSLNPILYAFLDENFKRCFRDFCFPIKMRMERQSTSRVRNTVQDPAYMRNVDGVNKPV
Opioid receptor (mu and kappa) (Cavia porcellus), sequence (P97266 whole entry, looked up): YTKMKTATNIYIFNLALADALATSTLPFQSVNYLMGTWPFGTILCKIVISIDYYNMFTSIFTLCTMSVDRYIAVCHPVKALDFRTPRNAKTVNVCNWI

Kappa-type opioid receptor, sequence (P41144 whole entry): as the sequence (P41144 whole entry, looked up) above
Mu-type opioid receptor, sequence (P97266 whole entry): as the sequence (P97266 whole entry, looked up) above

## OC[C@]12CC[C@@]3(O1)[C@H]1Cc4ccc(O)cc4[C@@]3(CCN1CC1CC1)C2
[1]
  pKi: 9.99
Mu-type opioid receptor
  pKi: 9.84
[2]
  pKi: 8.46
[3]
  Ratio Ki: 1.42

## O=C1C[C@]23CCN(CC4CC4)[C@H](Cc4ccc(O)cc42)[C@]32CC[C@H]1O2
[1]
  pKi: 9.63
Mu-type opioid receptor
  pKi: 9.40
[2]
  pKi: 8.16
[3]
  Ratio Ki: 1.7

## O=C1CC[C@@]2(O)[C@H]3Cc4ccc(O)c5c4[C@@]2(CCN3CC2CC2)[C@H]1O5 [NALTREXONE]
[2]
  pKi: 7.68

Source: ChEMBL document CHEMBL1138460, “Synthesis of a new opioid ligand having the oxabicyclo[3.2.1]octane skeleton using a new rearrangement reaction” (Bioorg Med Chem Lett, 2009)
